Legend:
[1] = system: human kidney cell carcinoma RXF 486; test: Course of weight of naked mice bearing cachexia-inducing human kidney cell carcinoma RXF 486; type: in vivo; details: 33 mg/kg DPPC p.o., days 0-4, 7-11, 14, 17, 18; liposomal dispersion in saline; n=3; p <0.001
Source text: Tumors from the human kidney cell carcinoma RXF 486 have a string cachexia-inducing effect.
Female athymic BALB/c nude mice (nu/nu) (Charles River, Frederick, Md.) at the age of 8 to 10 weeks were employed. […] They were allowed water and rodent food (Altromin, Lage, Germany) ad libitum.
Fragments of 3-5 mm (in diameter) of the human kidney cell carcinoma RXF 486 were subcutaneously grafted between the animals' front and rear flanks. The therapy experiments were begun when the tumors had reached a size of 30-40 mm^3.
For the therapy, synthetic PL (dipalmitoylphosphatidylcholine, DPPC; Sygena, Liestal, Switzerland) was employed. It was dispersed in 0.9% (w/v) saline in a concentration of 33 mg/ml (ultrasonic dispersion in 50 ml Falcon tube) to provide a heterogeneous liposomal dispersion. For the oral administration (p.o.), the dispersion was adjusted to 3.3 mg/ml with saline.
On experiment days 0-4, 7-11, 14, 17 and 18, the animals were treated with 33 mg each per kg of body weight of DPPC p.o. by a stomach tube (application volume: 10 ml/kg). The control animals only obtained saline. The weight of the animals was determined on days 0, 2, 4, 7, 9, 11, 14, 18, 21, 25, 26 and 29 and is shown in FIG. 1 in % of the weight on day 0.

tumor cells = details: Nagami et al., Bioorganic & Medicinal Chemistry Letters 16: 782-785 (2006); cited from earlier work

SMILES | weight loss as compared to an untreated control group [1] | apoptosis and necrosis in tumor cells (tumor cells)
CCCCCCCCCCCCCCCC(=O)OC[C@H](COP(=O)([O-])OCC[N+](C)(C)C)OC(=O)CCCCCCCCCCCCCCC [DPPC, dipalmitoylphosphatidylcholine] | virtually stopped | does not show such an effect
CCCCCCCCCCCCCC(=O)OC[C@H](COP(=O)([O-])OCC[N+](C)(C)C)OC(=O)CCCCCCCCCCCCC [dimyristoyl-PC, reference compound] | – | produces apoptosis and necrosis

Reference: US20090298793A1, “Acylgycerophospholipids for treating symptoms concomitant with cancer” (KTB TUMORFORSCHUNGSGESELLSCHAFT MBH, priority 2005, published 2009)
